The values that follow come from patent US10071968B2 (priority 2014, dated 2018).

Chain of human σ1 receptor (Q99720 whole entry): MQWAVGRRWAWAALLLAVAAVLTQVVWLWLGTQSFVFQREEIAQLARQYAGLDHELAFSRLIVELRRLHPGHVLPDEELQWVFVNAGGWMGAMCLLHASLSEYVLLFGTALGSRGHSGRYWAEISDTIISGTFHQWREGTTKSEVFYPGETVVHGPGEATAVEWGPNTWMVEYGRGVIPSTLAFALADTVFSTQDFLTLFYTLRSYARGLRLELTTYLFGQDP

The first experiment addresses human σ1 receptor (Homo sapiens, UniProt Q99720). Kind of experiment: Human σ1 receptor radioligand assay ([3H](+)-pentazocine, transfected HEK-293 membranes). It counts as binding. The arrangement: μ and σ1 dual binding: key to the marks not given beside the values. The following applies: one combined class for Ki-σ1 (A1) and Ki-μ (human μ-opioid receptor, A2). The procedure:
To investigate binding properties of test compounds to human σ1 receptor, transfected HEK-293 membranes and [^3H](+)-pentazocine (Perkin Elmer, NET-1056), as the radioligand, were used. The assay was carried out with 7 μg of membrane suspension, 5 nM of [^3H](+)-pentazocine in either absence or presence of either buffer or 10 μM Haloperidol for total and non-specific binding, respectively. Binding buffer contained Tris-HCl 50 mM at pH 8. Plates were incubated at 37° C. for 120 minutes. After the incubation period, the reaction mix was then transferred to MultiScreen HTS, FC plates (Millipore), filtered and plates were washed 3 times with ice-cold 10 mM Tris-HCL (pH7.4). Filters were dried and counted at approximately 40% efficiency in a MicroBeta scintillation counter (Perkin-Elmer) using EcoScint liquid scintillation cocktail
For `CN(CCOC(c1ccccc1)c1ccnn1C)Cc1ccc(F)cc1` (stereo not shown) [Example 8, N-(4-fluorobenzyl)-N-methyl-2-((1-methyl-1H-pyrazol-5-yl)(phenyl)methoxy)ethanamine], the “μ and σ1 dual binding” value is “++”.
`CN(CCO[C@H](c1ccccc1)c1ccnn1C)Cc1ccccc1` [Example 9, (R)-N-benzyl-N-methyl-2-((1-methyl-1H-pyrazol-5-yl)(phenyl)methoxy)ethanamine]: the “μ and σ1 dual binding” value is “++”.
With `CN(CCO[C@H](c1ccccc1)c1ccnn1C)Cc1ccc(F)cc1` [Example 10, (R)-N-(4-fluorobenzyl)-N-methyl-2-((1-methyl-1H-pyrazol-5-yl)(phenyl)methoxy)ethanamine], the “μ and σ1 dual binding” value was “++”.
As for `CN(CCO[C@H](c1ccccc1)c1ccnn1C)CCc1ccccc1` [Example 11, (R)-N-methyl-2-((1-methyl-1H-pyrazol-5-yl)(phenyl)methoxy)-N-phenethylethanamine], the “μ and σ1 dual binding” value is on record as “++”.
On the same count and under the same terms, the value for `CC(c1ccccc1)N(C)CCOC(c1ccccc1)c1ccnn1C` (stereo not shown) [Example 16, N-methyl-2-((1-methyl-1H-pyrazol-5-yl)(phenyl)methoxy)-N-(1-phenylethyl)ethanamine] was “++”.
With `COc1cccc(CN(C)CCOC(c2ccccc2)c2ccnn2C)c1` (stereo not shown) [Example 23, N-(3-methoxybenzyl)-N-methyl-2-((1-methyl-1H-pyrazol-5-yl)(phenyl)methoxy)ethanamine], the “μ and σ1 dual binding” value is “++”.
In the case of `CC(C)N(CCOC(c1ccccc1)c1ccnn1C)Cc1ccccc1` (stereo not shown) [Example 27, N-benzyl-N-(2-((1-methyl-1H-pyrazol-5-yl)(phenyl)methoxy)ethyl)propan-2-amine], the “μ and σ1 dual binding” value is “++”.
Consider `CC(C)N(CCOC(c1ccccc1)c1ccnn1C)Cc1cccc(F)c1` (stereo not shown) [Example 29, N-(3-fluorobenzyl)-N-(2-((1-methyl-1H-pyrazol-5-yl)(phenyl)methoxy)ethyl)propan-2-amine], for which the “μ and σ1 dual binding” value is on record as “++”.
Same read-out and setting: the value for `Cc1ccsc1[C@@H](OCCN(C)Cc1ccccc1)c1ccnn1C` [Example 30, (S)-N-benzyl-N-methyl-2-((1-methyl-1H-pyrazol-5-yl)(3-methylthiophen-2-yl)methoxy)ethanamine] was “++”; that for `COc1ccccc1C(OCCN(C)Cc1ccccc1)c1ccnn1C` (stereo not shown) [Example 39, N-benzyl-2-((2-methoxyphenyl)(1-methyl-1H-pyrazol-5-yl)methoxy)-N-methylethanamine] was “++”; that for `CN(CCOC(c1cccnc1)c1ccnn1C)Cc1cccc(F)c1` (stereo not shown) [Example 46, N-(3-fluorobenzyl)-N-methyl-2-((1-methyl-1H-pyrazol-5-yl)(pyridin-3-yl)methoxy)ethanamine] was “++”.
On the same count and under the same terms, the value for `COc1ccccc1C(OCCN(C)Cc1cccc(F)c1)c1ccnn1C` (stereo not shown) [Example 48, N-(3-fluorobenzyl)-2-((2-methoxyphenyl)(1-methyl-1H-pyrazol-5-yl)methoxy)-N-methylethanamine] was “++”.
Still for that read-out and setting: then `CN(CCOC(c1cncs1)c1ccnn1C)Cc1cccc(F)c1` (stereo not shown) [Example 49, N-(3-fluorobenzyl)-N-methyl-2-((1-methyl-1H-pyrazol-5-yl)(thiazol-5-yl)methoxy)ethanamine], with “++”.
In the case of `CN(CCOC(c1ccc(O)cc1)c1ccnn1C)Cc1ccccc1` (stereo not shown) [Example 51, 4-((2-(benzyl(methyl)amino)ethoxy)(1-methyl-1H-pyrazol-5-yl)methyl)phenol], the “μ and σ1 dual binding” value is “++”.

The same experiment, now with this note: one combined class for Ki-σ1 (A1) and Ki-μ (human μ-opioid receptor, A2); read-out: μ and σ1 dual binding.
With `CN(CCOC(c1ccccc1)c1ccnn1C)Cc1ccc(C(F)(F)F)nc1` (stereo not shown) [Example 3, N-methyl-2-((1-methyl-1H-pyrazol-5-yl)(phenyl)methoxy)-N-((6-(trifluoromethyl)pyridin-3-yl)methyl)ethanamine], the Ki was greater than 500 nM.
As to `CN(CCOC(c1ccccc1)c1ccnn1C)CCc1ccccc1` (stereo not shown) [Example 7, N-methyl-2-((1-methyl-1H-pyrazol-5-yl)(phenyl)methoxy)-N-phenethylethanamine], the Ki was less than 500 nM.
In the case of `CN(CCO[C@@H](c1ccccc1)c1ccnn1C)CCc1ccccc1` [Example 19, (S)-N-methyl-2-((1-methyl-1H-pyrazol-5-yl)(phenyl)methoxy)-N-phenethylethanamine], the Ki was less than 500 nM.
As to `CN(CCSC(c1ccccc1)c1ccnn1C)Cc1ccccc1` (stereo not shown) [Example 33, N-benzyl-N-methyl-2-((1-methyl-1H-pyrazol-5-yl)(phenyl)methylthio)ethanamine], the Ki was less than 500 nM.
Consider `CN(CC[S+]([O-])C(c1ccccc1)c1ccnn1C)Cc1ccccc1` (stereo not shown) [Example 34, N-Benzyl-N-methyl-2-((1-methyl-1H-pyrazol-5-yl)(phenyl)methylsulfinyl)ethanamine], for which the Ki is greater than 500 nM.
In the case of `CN(CCOC(c1ccccn1)c1ccnn1C)Cc1ccccc1` (stereo not shown) [Example 40, N-benzyl-N-methyl-2-((1-methyl-1H-pyrazol-5-yl)(pyridin-2-yl)methoxy)ethanamine], the Ki is greater than 500 nM.
With `CN(CCOC(c1cncs1)c1ccnn1C)Cc1ccccc1` (stereo not shown) [Example 41, N-benzyl-N-methyl-2-((1-methyl-1H-pyrazol-5-yl)(thiazol-5-yl)methoxy)ethanamine], the Ki was greater than 500 nM.
Take `CN(CCOC(c1ccccc1O)c1ccnn1C)Cc1ccccc1` (stereo not shown) [Example 52, 2-((2-(benzyl(methyl)amino)ethoxy)(1-methyl-1H-pyrazol-5-yl)methyl)phenol]: the Ki is less than 500 nM.
